*1 amine or outer side, *2 acyl side, *3 side chain or, on linkers, in order; H or OH if unused. Where a SMILES comes first, the peptide text is derived from it. [ ]: non-standard residue; d: D form. The star is where a group is joined. ξ: configuration not given here. X1 = O=C(C(=O)[*:2])C1CCCN1[*:1]; Cbz = O=C(OCc1ccccc1)*; ξV = CC(C)C(N)C(=O)O; OBn = c1ccc(CO*)cc1

T1 sequence (P23687 whole entry): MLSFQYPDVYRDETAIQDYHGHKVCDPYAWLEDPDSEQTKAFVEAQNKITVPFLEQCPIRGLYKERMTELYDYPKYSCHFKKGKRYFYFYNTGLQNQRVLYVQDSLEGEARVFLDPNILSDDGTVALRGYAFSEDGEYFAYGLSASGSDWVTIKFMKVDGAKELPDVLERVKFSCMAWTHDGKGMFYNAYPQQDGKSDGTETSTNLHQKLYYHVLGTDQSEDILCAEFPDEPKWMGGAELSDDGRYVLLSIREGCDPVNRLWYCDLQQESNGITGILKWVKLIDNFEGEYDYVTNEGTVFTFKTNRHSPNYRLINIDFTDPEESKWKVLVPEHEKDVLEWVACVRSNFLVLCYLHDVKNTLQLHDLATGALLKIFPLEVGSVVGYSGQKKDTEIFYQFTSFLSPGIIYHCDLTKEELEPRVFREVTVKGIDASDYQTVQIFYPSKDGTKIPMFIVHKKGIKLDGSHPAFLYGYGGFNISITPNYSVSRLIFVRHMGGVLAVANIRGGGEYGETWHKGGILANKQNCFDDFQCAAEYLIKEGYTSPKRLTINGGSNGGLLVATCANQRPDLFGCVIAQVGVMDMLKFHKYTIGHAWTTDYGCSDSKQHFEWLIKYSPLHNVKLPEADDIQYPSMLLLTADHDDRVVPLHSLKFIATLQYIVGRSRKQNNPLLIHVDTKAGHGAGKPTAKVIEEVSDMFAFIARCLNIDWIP

The first test concerns the target T1, prolyl endopeptidase (Sus scrofa, UniProt P23687).
T1 construct: prolyl endopeptidase obtained from porcine kidneys used as the enzyme; from tissue; host or cells: porcine kidneys
The experiment in a line: Enzyme inhibiting activity (prolyl endopeptidase; substrate benzyloxycarbonylglycylproline β-naphthylamide). It counts as biochemical, porcine.
Conditions: not given
How it is done:
Experiments were conducted to evaluate the enzyme inhibiting activity of the compounds of the present invention by using prolyl endopeptidase as the enzyme model. They are given in the following Test Examples.
Method of Assaying Enzyme Inhibiting Activity
Benzyloxycarbonylglycylproline β-naphthylamide (0.1 mM) used as the substrate was reacted with prolyl endopeptidase obtained from porcine kidneys used as the enzyme in a 0.025 M tris(hydroxymethyl)methanamine hydrochloric acid solution (pH: 7.5) at 37° C. reaction mixture for 30 min and then the absorbance of the product at 525 nm was measured.
For orientation: IC50 means the concentration that gives 50% inhibition. Higher therefore signals weaker potency. For the compound `CC(C)CC(NC(=O)C(=O)C1CCCN1C(=O)C(Cc1ccccc1)NC(=O)OCc1ccccc1)C(=O)OC(C)(C)C` (stereo not drawn) [Example 23, N-benzyloxycarbonylphenylalanyl-[2-oxo-2-(pyrrolidin-2-yl)acetyl]-leucine t-butyl ester], the IC50 is 3.03 nM.

As for `CC(C)C[C@@H](NC(=O)C(=O)C1CCCN1C(=O)C(Cc1ccccc1)NC(=O)OCc1ccccc1)C(=O)O` (stereo partly drawn) [Example 17, N-Benzyloxycarbonylphenylalanyl-[2-oxo-2-(pyrrolidin-2-yl)acetyl)-D-leucine], the midpoint of inhibition, the IC50, lay at 2.42 nM.

Consider `CC(C)C[C@@H](NC(=O)C(=O)C1CCCN1C(=O)C1CCCN1C(=O)OCc1ccccc1)C(=O)NC(C(=O)OCc1ccccc1)C(C)C` (stereo partly drawn) [Example 20, N-Benzyloxycarbonylprolyl-[2-oxo-2-(pyrrolidin-2-yl)acetyl]-D-leucylvaline benzyl ester], for which the half-maximal inhibitory concentration (IC50) was 3.25 nM.

`CC(C)C[C@@H](NC(=O)C(=O)C1CCCN1C(=O)C(Cc1ccccc1)NC(=O)OCc1ccccc1)C(=O)NC(C)(C)C` (stereo partly drawn) [Example 19, N-Benzyloxycarbonylphenylalanyl-[2-oxo-2-(pyrrolidin-2-yl)acetyl]-D-leucinet-butylamide] gave a concentration for half-maximal inhibition (IC50) of 2.36 nM.

In turn, `CC(C)C[C@@H](NC(=O)C(=O)C1CCCN1C(=O)C(NC(=O)C(N)C(C)C)C(C)C)C(=O)NC(C(=O)O)C(C)C` (stereo partly drawn) [Example 8, Valylvalyl-[2 oxo 2-(pyrrolidin-2-yl)acetyl]-D-leucylvaline] (H-[ξV][ξV][X1][dL][ξV]-OH) gave an IC50 of 19.9 nM.

As for `CC(C)(C)OC(=O)CNC(=O)C(=O)C1CCCN1C(=O)C(Cc1ccccc1)NC(=O)OCc1ccccc1` (stereo not drawn) [Example 21, N-Benzyloxycarbonylphenylalanyl-[2-oxo-2-(pyrrolidin-2-yl)acetyl]-glycine t-butyl ester], the half-maximal inhibitory concentration (IC50) was 1.49 nM.

Turning to `CC(C)C[C@@H](NC(=O)C(=O)C1CCCN1C(=O)C(NC(=O)C(NC(=O)OCc1ccccc1)C(C)C)C(C)C)C(=O)NC(C(=O)OCc1ccccc1)C(C)C` (stereo partly drawn) [Example 7, N-Benzyloxycarbonylvalylvalyl-[2-oxo-2-(pyrrolidin-2-yl)acetyl]-D-leucylvaline benzyl ester] (Cbz-[ξV][ξV][X1][dL][ξV]-OBn), inhibition was half-maximal at 9 nM (IC50).

The compound `CC(C)C[C@@H](NC(=O)C(=O)C1CCCN1C(=O)C(Cc1ccccc1)NC(=O)OCc1ccccc1)C(=O)OC(C)(C)C` (stereo partly drawn) [Example 16, N-Benzyloxycarbonylphenylalanyl-[2-oxo-2-(pyrrolidin-2-yl)acetyl]-D-leucin t-butyl ester] showed an IC50 of 3.37 nM.

In turn, `O=C(O)CNC(=O)C(=O)C1CCCN1C(=O)C(Cc1ccccc1)NC(=O)OCc1ccccc1` (stereo not drawn) [Example 22, N-Benzyloxycarbonylphenylalanyl-[2-oxo-2-(pyrrolidin-2-yl)acetyl]-glycine] showed a 50% inhibitory concentration (IC50) of 2.28 nM.

The compound `CC(C)C[C@@H](NC(=O)C(=O)C1CCCN1C(=O)OCc1ccccc1)C(=O)OC(C)(C)C` (stereo partly drawn) [Example 15, [2-Oxo-2-(N-benzyloxycarbonylpyrrolidin-2-yl)acetyl]-D-leucine t-butyl ester] had an IC50 of 103 nM.

The compound `CC(C)C[C@@H](NC(=O)C(=O)C1CCCN1C(=O)CC(C)(C)C)C(=O)OC(C)(C)C` (stereo partly drawn) [Example 14, [2-Oxo-2-(N-(3,3-dimethylbutanoyl)pyrrolidin-2-yl)-acetyl]-D-leucine t-butyl ester] had an IC50 of 21.9 nM.

Still in this test, the particulars now being: prolyl endopeptidase from porcine kidneys; substrate 0.1 mM; pH 7.5; 37° C.; 30 min; absorbance 525 nm.
Consider “N-Benzyloxycarbonylphenylalanyl-[2 hydroxy-2-(pyrrolidin-2-yl)acetyl]-D-leucylvaline benzyl ester [Example 9]”, for which the “IC50 (concentration necessary for 50% inhibition)” value came to 2.4 ng/mL.

The record behind these values is patent US5221752A, “α-keto amide derivatives” (Nippon Kayaku Kabushiki Kaisha, priority 1990, dated 1993).
